Laboratory results reported in patent publication US20090156646A1, “PYRIDYLPHENOL COMPOUND AND USE THEREOF” (TAKEDA PHARMACEUTICAL COMPANY LIMITED, priority 2005, published 2009).

Assays:
[1] = target: T1, human metastin receptor hOT7T175 (Homo sapiens, UniProt Q969F8, L364H); test: binding inhibiting activity: 125I-metastin (40-54) binding to cell membrane fraction of h175 KB34 cells; settings: room temperature 60 minutes, read-out: binding inhibiting activity, represented by the IC50 value
T1 construct: encoding the entire length of human metastin receptor hOT7T175; expressed in transfected cells; host or cells: CHO/dhFr- cells (ATCC #CRL-9096) stably transfected with pAKKO-hOT7T175; clone h175-16 was used as whole cells for FLIPR
T1 sequence (Q969F8 whole entry L364H): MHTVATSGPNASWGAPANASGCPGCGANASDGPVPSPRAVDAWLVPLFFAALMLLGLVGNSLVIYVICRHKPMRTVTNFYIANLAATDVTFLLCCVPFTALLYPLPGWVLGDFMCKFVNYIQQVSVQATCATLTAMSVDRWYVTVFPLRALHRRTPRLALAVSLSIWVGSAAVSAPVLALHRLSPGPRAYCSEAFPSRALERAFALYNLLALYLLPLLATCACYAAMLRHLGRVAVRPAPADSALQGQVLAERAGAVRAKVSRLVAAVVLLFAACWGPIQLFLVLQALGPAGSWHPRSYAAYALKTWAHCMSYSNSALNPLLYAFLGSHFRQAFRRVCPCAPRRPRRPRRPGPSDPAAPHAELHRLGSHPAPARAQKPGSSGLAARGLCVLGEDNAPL
Procedure, shortened: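 The assay buffer (pH 7.4 Tris with magnesium acetate, EGTA and a protease-inhibitor cocktail) was used either plain or supplemented with 1 mg/ml BSA. The radioligand was 125I-labelled human metastin (40-54). The receptor source was a 250-fold diluted membrane fraction of the stable CHO/dhfr− line h175 KB34.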

| SMILES | melting point | IC50 [1] [µM] |
| --- | --- | --- |
| C[C@H](N)CC(=O)Nc1cccc(-c2cc(-c3ccc(Cl)cc3O)nc(NC(=O)c3nccs3)c2C#N)c1.Cl [Example 269, N-[4-(3-{[(3S)-3-aminobutanoyl]amino}phenyl)-6-(4-chloro-2-hydroxyphenyl)-3-cyanopyridin-2-yl]-1,3-thiazole-2-carboxamide hydrochloride] | 218 to 221 °C | ≤ 10 |
| Cc1ccc(C(=O)Nc2nc(-c3ccc(Cl)cc3O)cc(-c3cccc(NC(=O)CC(C)N)c3)c2C#N)o1.Cl (centres unmarked) [Example 271, N-[4-{3-[(3-aminobutanoyl)amino]phenyl}-6-(4-chloro-2-hydroxyphenyl)-3-cyanopyridin-2-yl]-5-methyl-2-furamide hydrochloride] | 206 to 212 °C | ≤ 10 |
| Cl.N#Cc1c(-c2ccc(F)c(C(=O)NCCN)c2)cc(-c2ccc(F)cc2O)nc1NC(=O)c1ccco1 [Example 281, N-[4-(3-{[(2-aminoethyl)amino]carbonyl}-4-fluorophenyl)-3-cyano-6-(4-fluoro-2-hydroxyphenyl)pyridin-2-yl]-2-furamide hydrochloride] | 255 to 264 °C | ≤ 10 |
| Cl.N#Cc1c(-c2cccc(NC(=O)[C@H]3CCCC[C@H]3N)c2)cc(-c2ccc(F)cc2O)nc1NC(=O)c1ccco1 [Example 283, N-{4-[3-({[(1S,2R)-2-aminocyclohexyl]carbonyl}amino)phenyl]-3-cyano-6-(4-fluoro-2-hydroxyphenyl)pyridin-2-yl}-2-furamide hydrochloride] | 237 to 239 °C | ≤ 10 |
| CCCC(CC(=O)Nc1cccc(-c2cc(-c3ccc(F)cc3O)nc(NC(=O)c3ccco3)c2C#N)c1)N(C)C.Cl (centres unmarked) [Example 285, N-[3-cyano-4-(3-{[3-(dimethylamino)hexanoyl]amino}phenyl)-6-(4-fluoro-2-hydroxyphenyl)pyridin-2-yl]-2-furamide hydrochloride] | 180 to 182 °C | ≤ 10 |
| CN(C)[C@H]1CCCC[C@H]1C(=O)Nc1cccc(-c2cc(-c3ccc(F)cc3O)nc(NC(=O)c3ccco3)c2C#N)c1.Cl [Example 287, N-{3-cyano-4-[3-({[(1R,2S)-2-(dimethylamino)cyclohexyl]carbonyl}amino)phenyl]-6-(4-fluoro-2-hydroxyphenyl)pyridin-2-yl}-2-furamide hydrochloride] | 217 to 218 °C | ≤ 10 |
| Cl.N#Cc1c(-c2cccc(NC(=O)[C@H]3CCCN3)c2)cc(-c2ccc(F)cc2O)nc1NC(=O)c1nccs1 [Example 292, N-(3-{3-cyano-6-(4-fluoro-2-hydroxyphenyl)-2-[(1,3-thiazol-2-ylcarbonyl)amino]pyridin-4-yl}phenyl)-D-prolinamide hydrochloride] | 241 to 244 °C | ≤ 10 |
| Cl.N#Cc1c(-c2cccc(NC(=O)[C@H]3CCCN3)c2)cc(-c2ccc(Cl)cc2O)nc1NC(=O)c1nccs1 [Example 294, N-(3-{6-(4-chloro-2-hydroxyphenyl)-3-cyano-2-[(1,3-thiazol-2-ylcarbonyl)amino]pyridin-4-yl}phenyl)-D-prolinamide hydrochloride] | 222 to 228 °C | ≤ 10 |
| Cl.N#Cc1c(-c2cccc(NC(=O)[C@H]3CCCN3)c2)cc(-c2ccc(Cl)cc2O)nc1NC(=O)c1ccno1 [Example 295, N-(3-{6-(4-chloro-2-hydroxyphenyl)-3-cyano-2-[(isoxazol-5-ylcarbonyl)amino]pyridin-4-yl}phenyl)-D-prolinamide hydrochloride] | ≥ 250 °C (dec.) | ≤ 10 |
| Cl.N#Cc1c(-c2cccc(NC(=O)[C@H]3CCCN3)c2)cc(-c2ccc(Cl)cc2O)nc1NC(=O)c1ccco1 [Example 296, N-{3-[6-(4-chloro-2-hydroxyphenyl)-3-cyano-2-(2-furoylamino)pyridin-4-yl]phenyl}-D-prolinamide hydrochloride] | 208 to 213 °C | ≤ 10 |
| COC[C@H](N)C(=O)Nc1cccc(-c2cc(-c3ccc(F)cc3O)nc(NC(=O)c3ccco3)c2C#N)c1.Cl [Example 301, N-(3-cyano-6-(4-fluoro-2-hydroxyphenyl)-4-{3-[(O-methyl-L-seryl)amino]phenyl}pyridin-2-yl)-2-furamide hydrochloride] | 224 to 230 °C | ≤ 10 |
| CCN(CC)[C@@H](COC)C(=O)Nc1cccc(-c2cc(-c3ccc(F)cc3O)nc(NC(=O)c3ccco3)c2C#N)c1.Cl [Example 306, N-[3-cyano-4-{3-[(N,N-diethyl-O-methyl-L-seryl)amino]phenyl}-6-(4-fluoro-2-hydroxyphenyl)pyridin-2-yl]-2-furamide hydrochloride] | 192 to 196 °C | ≤ 10 |
| CN(C)CCNC(=O)c1cccc(-c2cc(-c3ccc(F)cc3O)nc(NC(=O)c3ccco3)c2C#N)c1.Cl [Example 309, N-[3-cyano-4-[3-({[2-(dimethylamino)ethyl]amino}carbonyl)phenyl]-6-(4-fluoro-2-hydroxyphenyl)pyridin-2-yl]-2-furamide hydrochloride] | 200 to 204 °C | ≤ 10 |
| CCN(CC)CCNC(=O)c1cccc(-c2cc(-c3ccc(F)cc3O)nc(NC(=O)c3ccco3)c2C#N)c1.Cl [Example 310, N-[3-cyano-4-[3-({[2-(diethylamino)ethyl]amino}carbonyl)phenyl]-6-(4-fluoro-2-hydroxyphenyl)pyridin-2-yl]-2-furamide hydrochloride] | 200 to 204 °C | ≤ 10 |

The remaining lines, values ahead:

| melting point | IC50 [1] [µM] | SMILES |
| --- | --- | --- |
| 214 to 217 °C | ≤ 10 | CC(C)C(N)CC(=O)Nc1cccc(-c2cc(-c3ccc(F)cc3O)nc(NC(=O)c3ccco3)c2C#N)c1.Cl (centres unmarked) [Example 266, N-[4-{3-[(3-amino-4-methylpentanoyl)amino]phenyl}-3-cyano-6-(4-fluoro-2-hydroxyphenyl)pyridin-2-yl]-2-furamide hydrochloride] |
| 218 to 221 °C | ≤ 10 | C[C@@H](N)CC(=O)Nc1cccc(-c2cc(-c3ccc(Cl)cc3O)nc(NC(=O)c3nccs3)c2C#N)c1.Cl [Example 270, N-[4-(3-{[(3R)-3-aminobutanoyl]amino}phenyl)-6-(4-chloro-2-hydroxyphenyl)-3-cyanopyridin-2-yl]-1,3-thiazole-2-carboxamide hydrochloride] |
| 182 to 188 °C | ≤ 10 | COc1c(C(=O)NCCN)cccc1-c1cc(-c2ccccc2O)nc(NC(=O)c2ccco2)c1C#N.Cl [Example 273, N-[4-(3-{[(2-aminoethyl)amino]carbonyl}-2-methoxyphenyl)-3-cyano-6-(2-hydroxyphenyl)pyridin-2-yl]-2-furamide hydrochloride] |
| 220 to 223 °C | ≤ 10 | Cl.N#Cc1c(-c2cccc(NC(=O)[C@@H]3CCCC[C@@H]3N)c2)cc(-c2ccc(F)cc2O)nc1NC(=O)c1ccco1 [Example 284, N-{4-[3-({[(1R,2S)-2-aminocyclohexyl]carbonyl}amino)phenyl]-3-cyano-6-(4-fluoro-2-hydroxyphenyl)pyridin-2-yl}-2-furamide hydrochloride] |
| 205 to 207 °C | ≤ 10 | CN(C)[C@@H]1CCCC[C@@H]1C(=O)Nc1cccc(-c2cc(-c3ccc(F)cc3O)nc(NC(=O)c3ccco3)c2C#N)c1.Cl [Example 286, N-{3-cyano-4-[3-({[(1S,2R)-2-(dimethylamino)cyclohexyl]carbonyl}amino)phenyl]-6-(4-fluoro-2-hydroxyphenyl)pyridin-2-yl}-2-furamide hydrochloride] |
| 216 to 220 °C | ≤ 10 | Cl.N#Cc1c(-c2cccc(NC(=O)[C@H]3CCCN3)c2)cc(-c2ccc(F)cc2O)nc1NC(=O)c1ccco1 [Example 291, N-{3-[3-cyano-6-(4-fluoro-2-hydroxyphenyl)-2-(2-furoylamino)pyridin-4-yl]phenyl}-D-prolinamide hydrochloride] |
| ≥ 250 °C (dec.) | ≤ 10 | Cl.N#Cc1c(-c2cccc(NC(=O)[C@H]3CCCN3)c2)cc(-c2ccc(F)cc2O)nc1NC(=O)c1ccno1 [Example 293, N-(3-{3-cyano-6-(4-fluoro-2-hydroxyphenyl)-2-[(isoxazol-5-ylcarbonyl)amino]pyridin-4-yl}phenyl)-D-prolinamide hydrochloride] |
| 260 to 262 °C | ≤ 10 | Cl.N#Cc1c(-c2cccc(NC(=O)[C@@H]3C[C@@H](O)CN3)c2)cc(-c2ccc(F)cc2O)nc1NC(=O)c1ccco1 [Example 298, (4R)—N-{3-[3-cyano-6-(4-fluoro-2-hydroxyphenyl)-2-(2-furoylamino)pyridin-4-yl]phenyl}-4-hydroxy-L-prolinamide hydrochloride] |
| 215 to 217 °C | ≤ 10 | CN1C[C@H](O)C[C@H]1C(=O)Nc1cccc(-c2cc(-c3ccc(F)cc3O)nc(NC(=O)c3ccco3)c2C#N)c1.Cl [Example 299, (4R)—N-{3-[3-cyano-6-(4-fluoro-2-hydroxyphenyl)-2-(2-furoylamino)pyridin-4-yl]phenyl}-4-hydroxy-1-methyl-L-prolinamide hydrochloride] |
| 158 to 160 °C | ≤ 10 | CC(=O)NCCNc1cccc(-c2cc(-c3ccc(F)cc3O)nc(NC(=O)c3ccco3)c2C#N)c1 [Example 307, N-[4-(3-{[2-(acetylamino)ethyl]amino}phenyl)-3-cyano-6-(4-fluoro-2-hydroxyphenyl)pyridin-2-yl]-2-furamide] |
| 233 to 238 °C | ≤ 10 | CCNC(CC)CC(=O)Nc1cccc(-c2cc(-c3ccc(F)cc3O)nc(NC(=O)c3ccco3)c2C#N)c1.Cl (centres unmarked) [Example 308, N-[3-cyano-4-(3-{[3-(ethylamino)pentanoyl]amino}phenyl)-6-(4-fluoro-2-hydroxyphenyl)pyridin-2-yl]-2-furamide hydrochloride] |
